# Assay results from patent US20240350430A1, “GROWTH INHIBITOR OF METASTATIC HUMAN PROSTATE CANCER CELLS” (Watanabe Oyster Laboratory Co., Ltd., priority 2021, published 2024).
# Assays:
# [1] = test system: DU-145 cells; assay: Cell death of sub-confluent DU-145 cells (adherent cell counting); type: cell-based, human
# Procedure: The PC-3 and DU-145 cells (1×10^5/in 1 ml of a culture fluid per hole using a 24-hole plate) were cultured in a DMEM culture fluid (containing 10% of FBS, 1% of P/S, and 1% of fungizone) under 5% of CO2, at 37° C., for three days, and when the cells reached sub-confluence, the culture fluid was exchanged for the one containing the DHMBA (0.01, 0.1, 1, 10, 100, or 1000 μM), and the cells were cultured for 24 and 48 hours. After the culture, the cells adhering to the bottom surface of the dish were removed and counted. In another experiment, after the culture for three days, when the cells reached sub-confluence, the culture fluid was exchanged for a culture fluid containing the DHMBA (1 or 10 μM) and a caspase-3 inhibitor (10 μM), and the cells were counted after the culture for 48 hours. Further, after the culture for three days, when the cells reached sub-confluence, the culture fluid was exchanged for a culture fluid obtained by adding gemcitabine (0.1, 1, 10, 50 or 100 nM) or CH223191 (1, 10, and 25 μM) to a DMEM culture fluid containing the DHMBA (1 or 10 μM) or not containing the DHMBA, and the cells were counted after the culture for 48 hours. […]
# [2] = test system: DU-145 cells; assay: Intracellular active oxygen (ROS) production, H2DCFDA, DU-145 cells; type: cell-based, human; settings: DHMBA 1, 10, 100, and 1000 μM, 24 hours
# Procedure: The intracellular active oxygen (reactive oxygen species: ROS) was measured using an ROS measurement kit (MAK144-1 Kit, Sigma-Aldrich) using pro-fluorescent substrate H2DCFDA. The PC-3 and DU-145 cells (the cell number of 2.5×10^4/per well, in 0.1 ml of a culture fluid per hole using a 96-hole plate) were cultured in a DMEM culture fluid (containing 10% of FBS, 1% of P/S, and 1% of fungizone) containing the DHMBA (0.1, 1, 10, 100, or 1000 μM) under 5% of CO2, at 37° C., for 24 hours. After the culture, the cells were washed with PBS, 0.1 ml and 25 μM of an H2DCFDA solution was added, and incubation was performed for 45 minutes. Afterwards, the cells were washed with PBS, and as the amount of active oxygen produced in the cells, fluorescence intensity was measured using a fluorescence measurement plate reader at a wavelength Ex/Em=485/535 nm.
# The PC-3 and DU-145 cells (2.5×10^4/0.1 ml of a culture fluid per hole using a 96-hole plate) were cultured under 5% of CO2, at 37° C., for 24 hours in a DMEM culture fluid (containing 10% of FBS, 1% of P/S, and 1% of fungizone) containing the DHMBA (0.1, 1, 10, 100, or 1000 μM). […] After the cells were washed with PBS, a fluorescence intensity of the cells was measured using a fluorescence measurement plate reader at a wavelength Ex/Em=485/535 nm. […]
smiles,measurement,setting,value
"COc1c(O)cc(CO)cc1O [DHMBA, 3,5-dihydroxy-4-methoxybenzyl alcohol]",cell death,"[1]; DHMBA 1, 10, 100, or 1000 μM, 24 and 48 hours",significantly increased
same,increase of cell death in the presence of caspase-3 inhibitor,"[1]; DHMBA 1 or 10 μM with caspase-3 inhibitor 10 μM, 48 hours",not caused
same,amount of intracellular active oxygen production,[2],significant inhibition
